Test results from patent US12655156B2, “Oxadiazolopyrazines and oxadiazolopyridines useful as mitochondrial uncouplers” (Virginia Tech Intellectual Properties, Inc., priority 2018, dated 2026).
pEC50: −log10 of the molar value.

system: whole cells (NMuLi, C2C12, and L6 cells, isolated cardiomyocytes, human primary fibroblasts); experiment: Oxygen consumption rate (OCR) in whole cells, Seahorse XF-24 Flux Analyzer; assay type: cell-based; settings: increase in OCR; binned EC50 values
Method: Biological activities of the compounds synthesized is determined by determining increase in oxygen consumption rate (OCR).
Oxygen consumption rate (OCR) in whole cells is measured in general accordance with the method of Kenwood B M et al. (Mol. Met. (2014) 3:114-123).
OCR is measured using a Seahorse XF-24 Flux Analyzer (Seahorse Biosciences, North Billerica, MA). NMuLi, C2C12, and L6 cells are seeded in a Seahorse 24-well tissue culture plate at a density of 3.5×10^4 cells/well, isolated cardiomyocytes at a density of 4×10^4 cells/well, and human primary fibroblasts at a density of 1.1×10^4 cells/well. The cells are then allowed to adhere for 24 h. Prior to the assay, the media is changed to unbuffered DMEM containing pyruvate and glutamine (Gibco #12800-017, pH=7.4 at 37° C.) and the cells are equilibrated for 30 mins at 37°° C. Compounds are injected during the assay and OCR is measured using 2 min measurement periods.
2-3 wells are used per condition and averaged over three plates (n=6-9). Statistical significance is determined by two-way ANOVA with Bonferroni's posttest.
Activities are reported as binned EC50 values: A=5 μM or less; B=>5 to 20 μM; C=over 20 μM; NA=not active.

| Compound | pEC50 |
| --- | --- |
| Oc1nc2nonc2nc1Nc1ccccc1F [1-3, 6-((2-Fluorophenyl)amino)-[1,2,5]oxadiazolo[3,4-b]pyrazin-5-ol] | 4.70 to 5.30 |
| Oc1nc2nonc2nc1Nc1cccc(F)c1 [1-4, 6-((3-Fluorophenyl)amino)-[1,2,5]oxadiazolo[3,4-b]pyrazin-5-ol] | < 4.70 |
| Oc1nc2nonc2nc1Nc1ccc(F)cc1 [1-5, 6-((4-Fluorophenyl)amino)-[1,2,5]oxadiazolo[3,4-b]pyrazin-5-ol] | < 4.70 |
| Oc1nc2nonc2nc1Nc1ccccc1C(F)(F)F [1-6, 6-((2-(Trifluoromethyl)phenyl)amino)-[1,2,5]oxadiazolo[3,4-b]pyrazin-5-ol] | 4.70 to 5.30 |
| Oc1nc2nonc2nc1Nc1ccc(C(F)(F)F)cc1 [1-7, 6-((4-(Trifluoromethyl)phenyl)amino)-[1,2,5]oxadiazolo[3,4-b]pyrazin-5-ol] | 4.70 to 5.30 |
| Oc1nc2nonc2nc1Nc1ccccc1OC(F)(F)F [1-8, 6-((2-(Trifluoromethoxy)phenyl)amino)-[1,2,5]oxadiazolo[3,4-b]pyrazin-5-ol] | ≥ 5.30 |
| Oc1nc2nonc2nc1Nc1cccc(OC(F)(F)F)c1 [1-9, 6-((3-(Trifluoromethoxy)phenyl)amino)-[1,2,5]oxadiazolo[3,4-b]pyrazin-5-ol] | ≥ 5.30 |
| Oc1nc2nonc2nc1Nc1ccc(OC(F)(F)F)cc1 [1-10, 6-((4-(Trifluoromethoxy)phenyl)amino)-[1,2,5]oxadiazolo[3,4-b]pyrazin-5-ol] | 4.70 to 5.30 |
| Oc1nc2nonc2nc1Nc1ccc(OC(F)(F)F)c(F)c1 [1-11, 6-((3-Fluoro-4-(trifluoromethoxy)phenyl)amino)-[1,2,5]oxadiazolo[3,4-b]pyrazin-5-ol] | ≥ 5.30 |
| Cc1ccc(C(F)(F)F)cc1Nc1nc2nonc2nc1O [1-12, 6-((2-Methyl-5-(trifluoromethyl)phenyl)amino)-[1,2,5]oxadiazolo[3,4-b]pyrazin-5-ol] | 4.70 to 5.30 |
| Oc1nc2nonc2nc1Nc1cccc(F)c1F [1-14, 6-((2,3-Difluorophenyl)amino)-[1,2,5]oxadiazolo[3,4-b]pyrazin-5-ol] | 4.70 to 5.30 |
| Oc1nc2nonc2nc1Nc1cc(F)cc(F)c1 [1-15, 6-((3,5-Difluorophenyl)amino)-[1,2,5]oxadiazolo[3,4-b]pyrazin-5-ol] | 4.70 to 5.30 |
| Oc1nc2nonc2nc1Nc1ccc(C(F)(F)F)cc1F [1-16, 6-((2-Fluoro-4-(trifluoromethyl)phenyl)amino)-[1,2,5]oxadiazolo[3,4-b]pyrazin-5-ol] | ≥ 5.30 |
| Oc1nc2nonc2nc1Nc1cc(C(F)(F)F)ccc1F [1-17, 6-((2-Fluoro-5-(trifluoromethyl)phenyl)amino)-[1,2,5]oxadiazolo[3,4-b]pyrazin-5-ol] | 4.70 to 5.30 |
| Oc1nc2nonc2nc1Nc1cccc(I)c1 [1-18, 6-((3-Iodophenyl)amino)-[1,2,5]oxadiazolo[3,4-b]pyrazin-5-ol] | 4.70 to 5.30 |
| Oc1nc2nonc2nc1Nc1ccc(I)cc1 [1-19, 6-((4-Iodophenyl)amino)-[1,2,5]oxadiazolo[3,4-b]pyrazin-5-ol] | 4.70 to 5.30 |
| Oc1nc2nonc2nc1Nc1ccccc1Cl [1-20, 6-((2-Chlorophenyl)amino)-[1,2,5]oxadiazolo[3,4-b]pyrazin-5-ol] | 4.70 to 5.30 |
| Oc1nc2nonc2nc1Nc1ccc(Cl)cc1 [1-21, 6-((4-Chlorophenyl)amino)-[1,2,5]oxadiazolo[3,4-b]pyrazin-5-ol] | 4.70 to 5.30 |

| Compound | pEC50 |
| --- | --- |
| COc1cc(OC(F)(F)F)ccc1Nc1nc2nonc2nc1O [1-22, 6-((2-Methoxy-4-(trifluoromethoxy)phenyl)amino)-[1,2,5]oxadiazolo[3,4-b]pyrazin-5-ol] | ≥ 5.30 |
| Oc1nc2nonc2nc1Nc1ccc(OC(F)(F)F)c(Cl)c1 [1-24, 6-((3-Chloro-4-(trifluoromethoxy)phenyl)amino)-[1,2,5]oxadiazolo[3,4-b]pyrazin-5-ol] | ≥ 5.30 |
| Oc1nc2nonc2nc1Nc1ccc(SC(F)(F)F)cc1 [1-25, 6-((4-((Trifluoromethyl)thio)phenyl)amino)-[1,2,5]oxadiazolo[3,4-b]pyrazin-5-ol] | ≥ 5.30 |
| Oc1nc2nonc2nc1Nc1ccc(C(O)(C(F)(F)F)C(F)(F)F)cc1 [1-26, 6-((4-(1,1,1,3,3,3-Hexafluoro-2-hydroxypropan-2-yl)phenyl)amino)-[1,2,5]oxadiazolo[3,4-b]pyrazin-5-ol] | < 4.70 |
| Oc1nc2nonc2nc1Nc1ccc(OC(F)F)cc1 [1-27, 6-((4-(Difluoromethoxy)phenyl)amino)-[1,2,5]oxadiazolo[3,4-b]pyrazin-5-ol] | < 4.70 |
| Oc1nc2nonc2nc1Nc1ccc(OC(F)(F)C(F)F)cc1 [1-28, 6-((4-(1,1,2,2-Tetrafluoroethoxy)phenyl)amino)-[1,2,5]oxadiazolo[3,4-b]pyrazin-5-ol] | 4.70 to 5.30 |
| Oc1nc2nonc2nc1Nc1ccc(OC(F)(F)Cl)cc1 [1-29, 6-((4-(Chlorodifluoromethoxy)phenyl)amino)-[1,2,5]oxadiazolo[3,4-b]pyrazin-5-ol] | ≥ 5.30 |
| Oc1nc2nonc2nc1Nc1ccc(S(F)(F)(F)(F)F)cc1 [1-30, 6-((4-(Pentafluoro-16-sulfaneyl)phenyl)amino)-[1,2,5]oxadiazolo[3,4-b]pyrazin-5-ol] | ≥ 5.30 |
| Oc1nc2nonc2nc1Nc1cccc(S(F)(F)(F)(F)F)c1 [1-31, 6-((3-(Pentafluoro-16-sulfaneyl)phenyl)amino)-[1,2,5]oxadiazolo[3,4-b]pyrazin-5-ol] | ≥ 5.30 |
| Cc1cc(OC(F)(F)F)ccc1Nc1nc2nonc2nc1O [1-32, 6-((2-Methyl-4-(trifluoromethoxy)phenyl)amino)-[1,2,5]oxadiazolo[3,4-b]pyrazin-5-ol] | ≥ 5.30 |
| Oc1nc2nonc2nc1Nc1ccc(F)c(Br)c1 [1-33, 6-((3-Bromo-4-fluorophenyl)amino)-[1,2,5]oxadiazolo[3,4-b]pyrazin-5-ol] | 4.70 to 5.30 |
| Oc1nc2nonc2nc1Nc1cc(C(F)(F)F)cc(C(F)(F)F)c1 [1-34, 6-((3,5-Bis(trifluoromethyl)phenyl)amino)-[1,2,5]oxadiazolo[3,4-b]pyrazin-5-ol] | 4.70 to 5.30 |
| Oc1nc2nonc2nc1Nc1ccc(I)cc1OC(F)(F)F [1-35, 6-((4-Iodo-2-(trifluoromethoxy)phenyl)amino)-[1,2,5]oxadiazolo[3,4-b]pyrazin-5-ol] | ≥ 5.30 |
| Oc1nc2nonc2nc1Nc1ccc(OC(F)(F)F)cc1F [1-36, 6-((2-Fluoro-4-(trifluoromethoxy)phenyl)amino)-[1,2,5]oxadiazolo[3,4-b]pyrazin-5-ol] | ≥ 5.30 |
| Oc1nc2nonc2nc1Nc1cccc(C(F)(F)F)c1F [1-37, 6-((2-Fluoro-3-(trifluoromethyl)phenyl)amino)-[1,2,5]oxadiazolo[3,4-b]pyrazin-5-ol] | ≥ 5.30 |
| Oc1nc2nonc2nc1Nc1ccc(OC(F)(F)F)cc1Br [1-38, 6-((2-Bromo-4-(trifluoromethoxy)phenyl)amino)-[1,2,5]oxadiazolo[3,4-b]pyrazin-5-ol] | ≥ 5.30 |
| Oc1nc2nonc2nc1Nc1ccc(OC(F)(F)F)c(Br)c1 [1-39, 6-((3-Bromo-4-(trifluoromethoxy)phenyl)amino)-[1,2,5]oxadiazolo[3,4-b]pyrazin-5-ol] | ≥ 5.30 |
| O=[N+]([O-])c1cc(Nc2nc3nonc3nc2O)ccc1OC(F)(F)F [1-40, 6-((3-Nitro-4-(trifluoromethoxy)phenyl)amino)-[1,2,5]oxadiazolo[3,4-b]pyrazin-5-ol] | < 4.70 |
